Laboratory results as given in article PMC5516028, “Molecular tools for GABAA receptors: High affinity ligands for β1-containing subtypes” (Scientific Reports, 2017).
Where “and” joins values, the source holds several entries; their conditions need not be identical. Equal values may be shown once. Read-outs that look alike come from different tables or passages of the source.

Legend:
Type in all cases: cell-based
[1] = biological target: T1, α1β1R41N GABAA receptors (Rattus norvegicus, UniProt P15431+P62813, R66N); test: Two electrode voltage clamp in Xenopus laevis oocytes, mutant α1β1R41N; conditions: read-out: % of control current at EC3-5
T1 construct: expressed in transfected cells; host or cells: Xenopus laevis oocytes, mRNA injected
T1 sequence (P62813 28-455): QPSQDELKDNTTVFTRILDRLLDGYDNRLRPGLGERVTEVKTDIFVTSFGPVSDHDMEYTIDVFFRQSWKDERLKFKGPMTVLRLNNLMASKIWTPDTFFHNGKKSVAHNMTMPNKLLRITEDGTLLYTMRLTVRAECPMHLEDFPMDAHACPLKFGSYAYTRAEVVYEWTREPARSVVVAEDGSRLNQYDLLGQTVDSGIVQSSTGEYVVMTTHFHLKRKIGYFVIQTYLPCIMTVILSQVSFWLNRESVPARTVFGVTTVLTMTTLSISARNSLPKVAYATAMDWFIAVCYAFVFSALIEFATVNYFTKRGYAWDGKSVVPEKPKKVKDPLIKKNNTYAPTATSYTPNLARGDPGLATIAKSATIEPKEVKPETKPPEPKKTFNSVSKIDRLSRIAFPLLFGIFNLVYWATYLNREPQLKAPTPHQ
T1 sequence (P15431 26-474 R66N): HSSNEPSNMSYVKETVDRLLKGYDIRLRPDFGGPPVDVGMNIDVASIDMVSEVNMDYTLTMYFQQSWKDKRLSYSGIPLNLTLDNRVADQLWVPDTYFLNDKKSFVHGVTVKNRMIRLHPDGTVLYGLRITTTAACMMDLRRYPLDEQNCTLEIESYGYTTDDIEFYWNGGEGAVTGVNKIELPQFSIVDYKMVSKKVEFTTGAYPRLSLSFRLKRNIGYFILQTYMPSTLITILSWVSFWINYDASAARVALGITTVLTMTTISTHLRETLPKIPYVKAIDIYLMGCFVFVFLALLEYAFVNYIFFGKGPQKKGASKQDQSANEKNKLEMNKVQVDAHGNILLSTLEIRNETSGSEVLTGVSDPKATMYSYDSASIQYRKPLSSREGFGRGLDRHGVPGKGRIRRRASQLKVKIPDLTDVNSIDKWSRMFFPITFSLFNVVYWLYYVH
Procedure, shortened: (§1)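 cRNA ratio α:β 1:1 (mostly 3β:2α stoichiometry); α:β:γ2 1:1:5. 4.5 ng/oocyte. Incubation 18 °C: 2–3 d αβ, 3–4 d αβγ. Bath: NDE, 1.8 mM CaCl2, pH 7.5.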

[2] = biological target: T2, α3β3 GABAA receptors (Rattus norvegicus, UniProt P20236+P63079); test: Two electrode voltage clamp in Xenopus laevis oocytes, α3β3
T2 construct: expressed in transfected cells; host or cells: Xenopus laevis oocytes, mRNA injected
T2 sequence (P20236 29-493): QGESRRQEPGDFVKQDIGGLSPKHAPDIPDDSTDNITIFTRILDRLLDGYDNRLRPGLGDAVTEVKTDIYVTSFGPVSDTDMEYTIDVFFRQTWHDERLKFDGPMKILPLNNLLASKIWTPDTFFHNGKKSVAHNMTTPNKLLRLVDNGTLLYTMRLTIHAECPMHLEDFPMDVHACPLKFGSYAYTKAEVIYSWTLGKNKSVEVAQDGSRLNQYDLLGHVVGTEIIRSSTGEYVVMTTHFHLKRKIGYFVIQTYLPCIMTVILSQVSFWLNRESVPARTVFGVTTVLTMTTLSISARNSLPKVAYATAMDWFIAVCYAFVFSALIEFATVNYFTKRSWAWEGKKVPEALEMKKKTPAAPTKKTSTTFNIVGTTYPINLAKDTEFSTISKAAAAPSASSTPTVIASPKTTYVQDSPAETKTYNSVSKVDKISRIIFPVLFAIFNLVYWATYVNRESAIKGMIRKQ
T2 sequence (P63079 26-473): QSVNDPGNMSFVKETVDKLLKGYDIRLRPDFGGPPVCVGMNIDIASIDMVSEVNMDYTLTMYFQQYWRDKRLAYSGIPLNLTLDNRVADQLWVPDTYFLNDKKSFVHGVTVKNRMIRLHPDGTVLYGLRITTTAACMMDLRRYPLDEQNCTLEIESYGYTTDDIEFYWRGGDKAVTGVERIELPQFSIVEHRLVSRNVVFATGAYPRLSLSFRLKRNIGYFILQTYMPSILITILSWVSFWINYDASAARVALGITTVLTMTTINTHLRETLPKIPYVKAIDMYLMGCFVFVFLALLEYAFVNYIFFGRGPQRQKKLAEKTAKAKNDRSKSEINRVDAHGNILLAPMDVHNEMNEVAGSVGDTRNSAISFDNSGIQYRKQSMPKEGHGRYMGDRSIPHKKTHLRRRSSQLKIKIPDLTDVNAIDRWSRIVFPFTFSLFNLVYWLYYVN
Excerpt: (§2) cDNA’s of rat GABAA receptor subunits α1, α4, β1, β2, β3 and γ2S were cloned as described. cDNAs of the rat subunits α2, α3 and α5 were gifts from P. Malherbe, that of α6 and γ1 were gifts of P. Seeburg and that of δ was a gift of C. Czajkowski. The mutants were constructed using the Q5 Site-Directed Mutagenesis Kit (New England Biolabs) following manufacturer’s instruction. We used the wild-type rat β3-pCI vector as template and the primers […] and […] resulting in a substitution of amino acid N41 (AAC) to R (AGG). We used the wild-type rat β1-pCI vector as template and the primers […] and […] resulting in a substitution of amino acid R41 (CGG) to N (AAC). The mutated subunits were confirmed by sequencing.
(§3) In vitro transcription of mRNA was based on the cDNA expression vectors encoding for rat GABAA receptor subunits α1–6, β1-3, γ1,2, δ and the two β mutants (β1R41N and β3N41R)[40]. After linearizing the cDNA vectors with appropriate restriction endonucleases, the cDNA was purified and concentrated with the DNA Clean and Contentrator ^TM Kit (Zymoresearch, Catalog No. D4005). Capped transcripts of the purified cDNA were produced using the mMESSAGE mMACHINE® T7 transcription kit (Ambion, TX, USA) and polyadenylated using the Ambion PolyA tailing kit (Ambion). After transcription and polyadenylation the RNA was purified with the MEGAclear ^TM Kit (Ambion, Catalog No. AM1908). The final RNA concentration was measured on NanoDrop® ND-1000 and finally diluted and stored in diethylpyrocarbonate-treated water at −80 °C. For the microinjection, the RNA of αβ receptor combinations was mixed at 1:1 ratio (which leads to αβ receptors that consist of predominantly 3 beta and 2 alpha subunits[27]), for αkβlγm (k = 1–3, l = 1, 3, m = 1, 2) receptors at 1:1:5 ratio, for αkβ3γ2 (k = 4–6) and αkβlδ (k = 1, 4 and 6, l = 1, 3) receptor combinations at 3:1:5 ratio.
(§4) Mature female Xenopus laevis (Nasco, WI) were anesthetized in a bath of ice-cold 0.17% Tricain (Ethyl-m-aminobenzoate, Sigma, MO) before decapitation in full accordance with all rules of the Austrian animal protection law (see http://www.ris.bka.gv.at/Dokumente/BgblAuth/BGBLA_2012_I_114/BGBLA_2012_I_114.pdf) and the Austrian animal experiment by-laws (see https://www.ris.bka.gv.at/Dokumente/BgblAuth/BGBLA_2012_II_522/BGBLA_2012_II_522.pdf) which implement the European Directive 2010/63/EU (see http://eur-lex.europa.eu/LexUriServ/LexUriServ.do?uri=OJ:L:2010:276:0033:0079:en:PDF) into the Austrian law (all information accessed on July 27, 2016). The frog’s ovaries were transferred to ND96 medium (96 mM NaCl, 2 mM KCl, 1 mM MgCl2, 5 mM HEPES; pH 7.5). Stage 5–6 oocytes with the follicle cell layer around them were roughly dissected with forceps into packages of 10–15 cells and washed in Ca^2+-free ND96 medium. Cells were then digested with collagenase (type IA, Sigma, NO, 1 mg/mL ND96) at 18 °C shaking at 30 rpm for 30–60 minutes and gently defolliculated with the aid of a glass pipette with appropriate tip diameter and a platinum loop. Defolliculated cells were stored at 18 °C for at least 6 hours in ND96 solution containing penicillin G (10000 IU/100 mL) and streptomycin (10 mg/100 mL) in order to preselect and exclude damaged cells from further treatment. Healthy defolliculated oocytes were injected with an aqueous solution of mRNA. A total of 4.5 ng of mRNA per oocyte was injected with a Nanoject II (Drummond). After injection of mRNA, oocytes were incubated at 18 °C (ND96 + antibiotic) for 2–3 days for αβ receptors and for 3–4 days for αβγ or αβδ receptors before recording. When cells were measured at later time points, oocytes were stored at +4 °C instead of 18 °C.
(§5) For electrophysiological recordings, oocytes were placed on a nylon-grid in a bath of Ca^2+-containing NDE solution medium [96 mM NaCl, 5 mM HEPES-NaOH (pH 7.5), 2 mM KCl, 1 mM MgCl2, 1.8 mM CaCl2].

[3] = biological target: T3, α1β2 GABAA receptors (Rattus norvegicus, UniProt P62813+P63138); test: Two electrode voltage clamp in Xenopus laevis oocytes, α1β2
T3 construct: expressed in transfected cells; host or cells: Xenopus laevis oocytes, mRNA injected
T3 sequence (P62813 28-455): as the sequence (P62813 28-455) above
T3 sequence (P63138 25-474 limits assumed): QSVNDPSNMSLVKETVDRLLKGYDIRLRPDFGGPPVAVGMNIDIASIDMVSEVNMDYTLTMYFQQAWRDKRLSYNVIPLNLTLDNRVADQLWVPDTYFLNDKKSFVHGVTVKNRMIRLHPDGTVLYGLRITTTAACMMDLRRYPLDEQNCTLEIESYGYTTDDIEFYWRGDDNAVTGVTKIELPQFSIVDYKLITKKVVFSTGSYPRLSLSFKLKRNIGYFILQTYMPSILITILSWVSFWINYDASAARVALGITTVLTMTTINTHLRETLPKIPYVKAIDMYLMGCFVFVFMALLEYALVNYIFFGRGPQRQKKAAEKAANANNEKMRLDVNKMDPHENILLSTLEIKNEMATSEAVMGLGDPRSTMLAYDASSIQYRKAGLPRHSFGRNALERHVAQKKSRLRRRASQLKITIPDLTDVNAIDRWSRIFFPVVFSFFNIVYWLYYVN
Procedure, shortened: as §1

[4] = biological target: T4, α1β3 GABAA receptors (Rattus norvegicus, UniProt P62813+P63079); test: Two electrode voltage clamp in Xenopus laevis oocytes, α1β3
T4 construct: expressed in transfected cells; host or cells: Xenopus laevis oocytes, mRNA injected
T4 sequence (P62813 28-455): as the sequence (P62813 28-455) above
T4 sequence (P63079 26-473): as the sequence (P63079 26-473) above
Procedure, shortened: (§6)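 Defolliculated stage 5–6 oocytes received 4.5 ng of total rat subunit mRNA. The α:β ratio was 1:1 and the α:β:γ2 ratio was 1:1:5. Cells were held at 18 °C before recording, 2–3 days for binary and 3–4 days for ternary receptors.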

[5] = biological target: T5, α5β3γ2 GABAA receptors (Rattus norvegicus, UniProt P19969+P63079); test: Two electrode voltage clamp in Xenopus laevis oocytes, α5β3γ2
T5 construct: expressed in transfected cells; host or cells: Xenopus laevis oocytes, mRNA injected
T5 sequence (P19969 32-464 limits assumed): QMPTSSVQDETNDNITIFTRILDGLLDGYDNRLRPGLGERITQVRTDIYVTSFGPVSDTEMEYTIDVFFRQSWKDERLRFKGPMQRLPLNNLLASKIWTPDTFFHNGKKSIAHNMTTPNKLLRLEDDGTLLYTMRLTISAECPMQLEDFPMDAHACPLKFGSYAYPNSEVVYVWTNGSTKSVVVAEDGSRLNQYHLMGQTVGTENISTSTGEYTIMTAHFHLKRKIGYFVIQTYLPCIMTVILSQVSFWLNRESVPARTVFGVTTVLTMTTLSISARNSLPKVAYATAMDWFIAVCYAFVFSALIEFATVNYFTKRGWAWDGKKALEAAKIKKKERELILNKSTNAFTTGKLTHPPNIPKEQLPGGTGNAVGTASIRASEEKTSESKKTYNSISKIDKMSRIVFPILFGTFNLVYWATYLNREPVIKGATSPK
T5 sequence (P63079 26-473): as the sequence (P63079 26-473) above
T5 sequence (P18508 39-466 partner): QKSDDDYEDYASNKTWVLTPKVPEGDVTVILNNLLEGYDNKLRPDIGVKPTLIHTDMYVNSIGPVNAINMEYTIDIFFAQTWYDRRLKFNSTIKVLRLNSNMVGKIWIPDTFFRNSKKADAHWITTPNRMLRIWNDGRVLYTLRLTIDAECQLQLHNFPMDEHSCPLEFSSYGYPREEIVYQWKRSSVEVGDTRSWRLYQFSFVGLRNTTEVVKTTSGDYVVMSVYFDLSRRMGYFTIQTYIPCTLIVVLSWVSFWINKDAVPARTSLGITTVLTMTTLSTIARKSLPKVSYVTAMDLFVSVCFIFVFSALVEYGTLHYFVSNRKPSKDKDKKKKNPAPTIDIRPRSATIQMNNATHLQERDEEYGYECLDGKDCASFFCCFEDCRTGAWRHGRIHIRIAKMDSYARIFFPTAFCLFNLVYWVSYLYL
Excerpt: as §2, §3, §4, §5

[6] = biological target: T6, α1β1 GABAA receptors (Rattus norvegicus, UniProt P15431+P62813); test: Two electrode voltage clamp in Xenopus laevis oocytes, α1β1; conditions: for EC50: read-out: EC50
T6 construct: expressed in transfected cells; host or cells: Xenopus laevis oocytes, mRNA injected
T6 sequence (P62813 28-455): as the sequence (P62813 28-455) above
T6 sequence (P15431 26-474): as the sequence (P15431 26-474 R66N) above, with N41R counted along it
Procedure, shortened: as §1

[7] = biological target: T7, α1β3N41R GABAA receptors (Rattus norvegicus, UniProt P62813+P63079, N66R); test: Two electrode voltage clamp in Xenopus laevis oocytes, mutant α1β3N41R; conditions: co-applied with GABA EC3-5, read-out: EC50 values for the mutated receptors
T7 construct: expressed in transfected cells; host or cells: Xenopus laevis oocytes, mRNA injected
T7 sequence (P62813 28-455): as the sequence (P62813 28-455) above
T7 sequence (P63079 26-473 N66R): as the sequence (P63079 26-473) above, with N41R counted along it
Procedure, shortened: as §6

`Nc1ccc(-n2nc3c4cc(Cl)ccc4[nH]cc-3c2=O)cc1` [Compound 3, 8-Chloro-2-(4-aminophenyl)-2H-pyrazolo[4,3-c]quinolin-3(5H)-one] gave a current as % of control at 0.1 µM ([1]; 100nM) of 70 ± 1%, a current as % of control at 0.3 µM ([1]; 300nM) of 65 ± 6% and a current as % of control at 1 µM ([1]; 1μM) of 85 ± 7%. For the same molecule, the current as % of control at 3 µM ([1]; 3µM) was 100 ± 8%, the current as % of control at 10 µM ([1]; 10μM) was 125 ± 5% and the current as % of control at 30 µM ([1]; 30μM) was 110 ± 10%. The EC50 [2] was 1900 nM, the activity at 0.001 µM ([2]; read-out: efficacy, % of control current (GABA EC3-5 = 100%), α3β3, 1 nM) was 103 ± 3.1% and the activity at 1 µM ([2]; read-out: efficacy, % of control current (GABA EC3-5 = 100%), α3β3, 1 µM) was 144 ± 6.3%. For the same molecule, the EC50 [3] was 1050 nM, the activity at 30 µM ([3]; read-out: efficacy, % of control current (GABA EC3-5 = 100%), α1β2, 30 µM) was 106 ± 11.4% and the “Hill slope (nH)” value ([3]; α1β2) was 2.0±0.7. It also gave an activity at 0.001 µM ([4]; read-out: efficacy, % of control current (GABA EC3-5 = 100%), α1β3, 1 nM) of 106 ± 1.9%, an activity at 0.01 µM ([4]; read-out: efficacy, % of control current (GABA EC3-5 = 100%), α1β3, 10 nM) of 108 ± 5.1% and an activity at 0.1 µM ([4]; read-out: efficacy, % of control current (GABA EC3-5 = 100%), α1β3, 100 nM) of 125 ± 4.6%. For the same molecule, the activity at 0.3 µM ([4]; read-out: efficacy, % of control current (GABA EC3-5 = 100%), α1β3, 300 nM) was 128 ± 8%, the activity at 3 µM ([4]; read-out: efficacy, % of control current (GABA EC3-5 = 100%), α1β3, 3 µM) was 254 ± 28.7% and the “Hill slope (nH)” value ([4]; α1β3) was 1.1±0.5. The “efficacy, % of control current (GABA EC3-5 = 100%)” value ([4]; α1β3, 100 nM, 0.1 µM) was 117.8±5.9%, the EC50 ([4]; α1β3, co-applied with GABA EC3-5, read-out: EC50) was 1470 nM and 2200 nM and the EC50 [5] was > 10 µM. For the same molecule, the activity at 0.01 µM ([5]; read-out: efficacy, % of control current (GABA EC3-5 = 100%), α5β3γ2, 10 nM) was 89.6 ± 3.1%, the activity at 0.1 µM ([5]; read-out: efficacy, % of control current (GABA EC3-5 = 100%), α5β3γ2, 100 nM) was 83.6 ± 4.2% and the activity at 1 µM ([5]; read-out: efficacy, % of control current (GABA EC3-5 = 100%), α5β3γ2, 1 µM) was 90.6 ± 5.1%. The activity at 10 µM ([5]; read-out: efficacy, % of control current (GABA EC3-5 = 100%), α5β3γ2, 10 µM) was 52.8 ± 6.7%, the activity at 0.01 µM ([6]; read-out: efficacy, % of control current (GABA EC3-5 = 100%), α1β1, 10 nM) was 116 ± 3.6% and the activity at 0.3 µM ([6]; read-out: efficacy, % of control current (GABA EC3-5 = 100%), α1β1, 300 nM) was 299 ± 29.7%. For the same molecule, the activity at 10 µM ([6]; read-out: efficacy, % of control current (GABA EC3-5 = 100%), α1β1, 10 µM) was 403 ± 50.9%, the “Hill slope (nH)” value ([6]; α1β1) was 1.0±0.4 and the EC50 ([6]; α1β1 (α1+/β1− interface)) was ~200 nM. The EC50 ([6]; α1β1, co-applied with GABA EC3-5) was 220 nM and the EC50 [7] was 200 nM.
